The nature of data set [1]: Aqueous solubility of the compound in phosphate buffer at pH 7.4. The class given is physicochemical.
The species named for data set [2] is Rattus norvegicus. Description: Inhibition of rat liver TrxR assessed as increase in absorbance at 10 uM by DTNB assay.
A short description of data set [3]: Antiproliferative activity against human Bel7402 cells assessed as cell viability after 48 hrs by MTT assay. It counts as functional, cell-based. The conditions noted are these: Bel-7402, 48 h.
Data set [4] is described as follows: Inhibition of rat liver TrxR assessed as increase in absorbance by DTNB assay.
The test system of the next data set is A549. Description: Antiproliferative activity against human A549 cells assessed as cell viability after 48 hrs by MTT assay. The class given is functional, cell-based. The conditions noted are these: A549, 48 h. In general terms: Tetrazolium assays rely on reduction of a dye to a coloured formazan, in cell work by metabolically active cells.
The next data set deals with MCF7. Nature of the data set: Antiproliferative activity against human MCF7 cells assessed as cell viability after 48 hrs by MTT assay. The class given is functional, cell-based. The conditions noted are these: MCF7, 48 h.
The test system of the next data set is HeLa. Nature of the data set: Antiproliferative activity against human HeLa cells assessed as cell viability after 48 hrs by MTT assay. It counts as functional, cell-based.
Data set [5] can be described thus: Cell cycle arrest in human Bel7402 cells assessed as cells accumulation at G1 phase at 50 uM after 48 hrs by flow cytometry (reference value: 62.60%). It counts as functional, cell-based. The conditions noted are these: Bel-7402. A general note: Flow cytometry measures light scatter and fluorescence of single cells or particles in a stream.
Data set [6] in a line: Cell cycle arrest in human Bel7402 cells assessed as cells accumulation at G2/M phase at 50 uM after 48 hrs by flow cytometry (reference value: 16.61%). Particulars: Bel-7402. The class given is functional, cell-based.
The test system of data set [7] is Bel-7402. Nature of the data set: Induction of apoptosis in human Bel7402 cells assessed as necrotic cells at 50 uM after 48 hrs by flow cytometry (reference value: 0.19%). The class given is functional.
Data set [8] relates to Bel-7402. Nature of the data set: Induction of apoptosis in human Bel7402 cells assessed as live cells at 50 uM after 48 hrs by flow cytometry (reference value: 98.65%). It counts as functional.
The nature of data set [9]: Cell cycle arrest in human Bel7402 cells assessed as cells accumulation at Sub-G1 phase at 50 uM after 48 hrs by flow cytometry (reference value: 1.47%). It counts as functional, cell-based. Particulars: Bel-7402.
Data set [10] can be described thus: Cell cycle arrest in human Bel7402 cells assessed as cells accumulation at S phase at 50 uM after 48 hrs by flow cytometry (reference value: 13.99%). The class given is functional, cell-based. Particulars: Bel-7402.
Data set [11] deals with Bel-7402. Nature of the data set: Induction of apoptosis in human Bel7402 cells assessed as detection error cells at 50 uM after 48 hrs by flow cytometry (reference value: 0.43%). It counts as functional.
For data set [12], the species on record is Rattus norvegicus. Description: Inhibition of rat liver TrxR assessed as increase in absorbance at 50 uM by DTNB assay.
Data set [13] concerns Bel-7402. Nature of the data set: Induction of apoptosis in human Bel7402 cells assessed as apoptotic cells at 50 uM after 48 hrs by flow cytometry (reference value: 0.73%). It counts as functional.

Each structure is given as a SMILES string. Activity calls are given as the source filed them. The rule behind the calls is not given here.

For the molecule `COc1cc(/C=C/c2ccc(-n3[se]c4ccc(Cl)cc4c3=O)cc2)cc(OC)c1`, the solubility (usually the concentration that dissolves in the medium under given conditions) in [1] was less than 50 µM. Moreover, the inhibition – broadly, the relative decrease from the control value, in per cent – in the data set listed under Rattus norvegicus [2] was 31.2%.

Turning to `COc1cc(/C=C/c2ccc(-n3[se]c4cc(OC)c(OC)cc4c3=O)cc2)cc(OC)c1`, the IC50 (as a rule, the concentration needed to halve the response being measured) in data set [3] amounted to 25.4 µM; in [4], 7.53 µM; in the data set on A549, 52.6 µM; with MCF7, 88.9 µM; in the data set on HeLa it was 31.6 µM.

The molecule `COc1cc(/C=C/c2ccc(-n3[se]c4cc(F)ccc4c3=O)cc2)cc(OC)c1` returned a solubility in [1] of less than 10 µM. For the same molecule, the IC50 in data set [3] came to 0.99 µM; with A549 it was 1.22 µM; in the data set on MCF7, 0.51 µM; in the data set with HeLa, 0.64 µM. The inhibition in the data set filed under Rattus norvegicus [2] is 36.6%.

The molecule `COc1ccc(/C=C/c2ccc(-n3[se]c4ccc(Cl)cc4c3=O)cc2)cc1OC` registered a solubility in data set [1] of less than 20 µM. Also, the IC50 is 6.13 µM in data set [3], 6.95 µM with A549, 16.9 µM in the data set with MCF7 and 12 µM with HeLa. Further, in the data set listed under Rattus norvegicus [2], the inhibition is 38.4%.

Turning to `COc1cccc(/C=C/c2ccc(-n3[se]c4ccccc4c3=O)cc2)c1`, the 50% inhibitory concentration (IC50) in data set [3] turned out to be 13.2 µM; in data set [4], 12.8 µM; with A549 it was 10.4 µM; in the data set on MCF7, 9.62 µM; with HeLa it was 7.34 µM.

Consider `COc1cc(/C=C/c2ccc(-n3[se]c4ccccc4c3=O)cc2)cc(OC)c1`, for which, in [1], the solubility is greater than 100 µM. The IC50 in data set [3] was found to be 3.49 µM; in data set [4], 8.27 µM; in the data set on A549, 3.73 µM; with MCF7 it was 7.78 µM; with HeLa, 3.8 µM.

`COc1cc(/C=C/c2ccc(-n3[se]c4cc(Cl)ccc4c3=O)cc2)cc(OC)c1` had a solubility in data set [1] of less than 10 µM. The IC50 in data set [3] came out at 0.79 µM; in the data set on A549 it was 0.52 µM; in the data set with MCF7 it was 0.47 µM; in the data set on HeLa, 0.23 µM. Further, the inhibition in the data set filed under Rattus norvegicus [2] stood at 36.4%.

As for `COc1cc(/C=C\c2ccc(-n3[se]c4ccccc4c3=O)cc2)cc(OC)c1`, the 50% inhibitory concentration (IC50) was determined as 36.1 µM in data set [3]; 9.62 µM in data set [4]; 43 µM in the data set with A549; 56.3 µM with MCF7; 28.4 µM in the data set with HeLa.

`COc1ccc(/C=C/c2ccc(N3Cc4ccccc4C3=O)cc2)cc1OC` had a solubility in data set [1] of less than 10 µM. The IC50 (in data set [3]; in the data set on A549; in the data set on MCF7; in the data set on HeLa) was greater than 10 µM in each case. The inhibition entry in the data set filed under Rattus norvegicus [2] is “inactive”.

Take `Oc1ccc(/C=C/c2cc(O)cc(O)c2)cc1` [RESVERATROL]: the Activity in data set [5] came to 59%; in data set [6], 31.2%; in the data set with Bel-7402 [7], 0.01%; in the data set on Bel-7402 [8], 85.3%; in data set [9], 0.15%; in [10], 9.83%. Also, the values for the Activity in the data set on Bel-7402 [11] and in the data set on Bel-7402 [13] were 0.03% and 13.2%, respectively. The 50% inhibitory concentration (IC50) in data set [3] was 50.7 µM; with A549 it was greater than 100 µM; in the data set on MCF7, greater than 100 µM; with HeLa, 47.9 µM. In addition, the inhibition in the data set filed under Rattus norvegicus [12] was determined as 26.1%.

In the case of `COc1cc(/C=C/c2ccc(-n3[se]c4ccccc4c3=O)cc2)cc(OC)c1OC`, the IC50 was 1.11 µM in data set [3]; 5.78 µM in [4]; 3.11 µM in the data set on A549; 3.97 µM in the data set on MCF7; 5.67 µM with HeLa.

In the case of `O=c1c2ccccc2[se]n1-c1ccccc1` [EBSELEN], the Activity was determined as 58.7% in data set [5]; 21.2% in data set [6]; 0.72% in the data set on Bel-7402 [7]; 90.8% in the data set on Bel-7402 [8]; 3.32% in [9]; 11.2% in data set [10]. The Activity came out at 0.56% with Bel-7402 [11] and 7.94% in the data set with Bel-7402 [13]. Moreover, the IC50 was 68.2 µM in data set [3]; 8.54 µM in [4]; greater than 100 µM in the data set with A549; greater than 100 µM in the data set with MCF7; 78.5 µM with HeLa.

On to `O=c1c2ccccc2[se]n1-c1ccc(/C=C/c2ccccc2)cc1`, for which the IC50 in [3] was determined as 12.4 µM; in the data set with A549, 23.8 µM; with MCF7 it was 24.8 µM; with HeLa, 35.7 µM. Moreover, the inhibition in the data set listed under Rattus norvegicus [2] was 22.4%.

The values above are taken from ChEMBL document CHEMBL3421553, “Design, synthesis, and biological evaluation of benzoselenazole-stilbene hybrids as multi-target-directed anti-cancer agents” (Eur J Med Chem, 2015).
